Laboratory results taken from the supplement of paper PMC10307832.

Assays:
Assay in all cases: relative viability (nuclei count vs DMSO), 5 days (fraction); higher = more cells survive
[1] = compound: C#Cc1cccc(Nc2ncnc3cc(OC)c(OCCCCCCC(=O)NO)cc23)c1 [CUDC-101] + NC(=O)Nc1cc(-c2cccc(F)c2)sc1C(=O)N[C@H]1CCCNC1 [AZD7762] (partner 0.2 µM)
In short: (§1)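 Nuclei were stained with Hoechst during a one-step fixation (final 0.05% Triton X-100, 1% formaldehyde, 1 ug/ml Hoechst) carried out 5 days after dosing, then counted on 4× images. The cells, lung cancer lines in 1536-well plates, had been dosed by pin tool the day after seeding with one drug alone or a fixed anchor-drug dose plus five library-drug doses (not always all listed) in √10 steps. Relative viability is the nuclei count in treated wells divided by that in vehicle wells, and each value is the median of duplicate plates.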

[2] = compound: COc1cc(N2CCC(N3CCN(C)CC3)CC2)ccc1Nc1ncc(Cl)c(Nc2ccccc2S(=O)(=O)C(C)C)n1 [NVP-TAE684] + Nc1ncn([C@H]2C[C@H](O)[C@@H](CO)O2)c(=O)n1 [Decitabine] (partner 2 µM)
In short: as §1

[3] = compound: C1=CC=C2C(=C1)N=C(S2)C(C#N)C3=NC(=NC=C3)NCCC4=CN=CC=C4 + CC(C)C[C@H](NC(=O)[C@H](Cc1ccccc1)NC(=O)c1cnccn1)B(O)O [Bortezomib] (partner 0.002 µM)
In short: as §1

[4] = compound: COc1cc2/c(=N/c3ccc(Br)cc3F)nc[nH]c2cc1OCC1CCN(C)CC1 [Vandetanib] + Nc1nc2[nH]cc(CCc3ccc(C(=O)N[C@@H](CCC(=O)O)C(=O)O)cc3)c2c(=O)[nH]1 [Pemetrexed] (partner 0.2 µM)
In short: as §1

Work on NCI-H1651 yielded a relative viability ([1]; first compound 0.01 µM) of 0.502, a relative viability ([1]; first compound 0.03162 µM) of 0.442 and a relative viability ([1]; first compound 0.1 µM) of 0.534. The relative viability ([1]; first compound 0.3162 µM) was 0.398, the relative viability ([1]; first compound 1 µM) was 0.349 and the relative viability ([2]; first compound 0.2 µM) was 0.614. For the same cell line, the relative viability ([2]; first compound 0.6325 µM) was 0.566, the relative viability ([2]; first compound 2 µM) was 0.502 and the relative viability ([3]; first compound 0.005 µM) was 0.636. For the same cell line, the relative viability ([3]; first compound 0.01581 µM) was 0.924, the relative viability ([3]; first compound 0.05 µM) was 0.935 and the relative viability ([3]; first compound 0.1581 µM) was 1.05. For the same cell line, the relative viability ([3]; first compound 0.5 µM) was 0.957, the relative viability ([4]; first compound 0.02 µM) was 0.579 and the relative viability ([4]; first compound 0.06325 µM) was 0.583. The relative viability ([4]; first compound 0.2 µM) was 0.555, the relative viability ([4]; first compound 0.6325 µM) was 0.5 and the relative viability ([4]; first compound 2 µM) was 0.505.
With NCI-H2405 the relative viability ([1]; first compound 0.01 µM) was 0.763, the relative viability ([1]; first compound 0.03162 µM) was 0.704 and the relative viability ([1]; first compound 0.1 µM) was 0.809. It also gave a relative viability ([1]; first compound 0.3162 µM) of 0.747, a relative viability ([1]; first compound 1 µM) of 0.649 and a relative viability ([2]; first compound 0.2 µM) of 0.684. It also gave a relative viability ([2]; first compound 0.6325 µM) of 0.683, a relative viability ([2]; first compound 2 µM) of 0.397 and a relative viability ([3]; first compound 0.005 µM) of 1.04. The relative viability ([3]; first compound 0.01581 µM) was 0.965, the relative viability ([3]; first compound 0.05 µM) was 0.982 and the relative viability ([3]; first compound 0.5 µM) was 0.998. For the same cell line, the relative viability ([4]; first compound 0.02 µM) was 0.987, the relative viability ([4]; first compound 0.06325 µM) was 0.982 and the relative viability ([4]; first compound 0.2 µM) was 1.01. For the same cell line, the relative viability ([4]; first compound 0.6325 µM) was 1.08 and the relative viability ([4]; first compound 2 µM) was 0.836.
NCI-H596 was tested, and the relative viability ([1]; first compound 0.01 µM) was 1.09, the relative viability ([1]; first compound 0.03162 µM) was 1.09 and the relative viability ([1]; first compound 0.1 µM) was 1.12. It also gave a relative viability ([1]; first compound 0.3162 µM) of 1.07, a relative viability ([1]; first compound 1 µM) of 1.04 and a relative viability ([2]; first compound 0.2 µM) of 1. The relative viability ([2]; first compound 0.6325 µM) was 1.08, the relative viability ([2]; first compound 2 µM) was 0.989 and the relative viability ([3]; first compound 0.005 µM) was 0.72. It also gave a relative viability ([3]; first compound 0.01581 µM) of 0.969, a relative viability ([3]; first compound 0.05 µM) of 0.938 and a relative viability ([3]; first compound 0.1581 µM) of 1.43. For the same cell line, the relative viability ([3]; first compound 0.5 µM) was 1.16, the relative viability ([4]; first compound 0.02 µM) was 0.476 and the relative viability ([4]; first compound 0.06325 µM) was 0.565. It also gave a relative viability ([4]; first compound 0.2 µM) of 0.427, a relative viability ([4]; first compound 0.6325 µM) of 0.52 and a relative viability ([4]; first compound 2 µM) of 0.469.
With LU99A the relative viability ([1]; first compound 0.01 µM) was 0.301, the relative viability ([1]; first compound 0.03162 µM) was 0.297 and the relative viability ([1]; first compound 0.1 µM) was 0.247. For the same cell line, the relative viability ([1]; first compound 0.3162 µM) was 0.198, the relative viability ([1]; first compound 1 µM) was 0.104 and the relative viability ([2]; first compound 0.2 µM) was 0.97. For the same cell line, the relative viability ([2]; first compound 2 µM) was 0.496, the relative viability ([3]; first compound 0.005 µM) was 1.08 and the relative viability ([3]; first compound 0.01581 µM) was 1.14. For the same cell line, the relative viability ([3]; first compound 0.05 µM) was 1.1, the relative viability ([3]; first compound 0.1581 µM) was 1.27 and the relative viability ([3]; first compound 0.5 µM) was 1.43. For the same cell line, the relative viability ([4]; first compound 0.02 µM) was 0.172, the relative viability ([4]; first compound 0.06325 µM) was 0.191 and the relative viability ([4]; first compound 0.2 µM) was 0.197. For the same cell line, the relative viability ([4]; first compound 0.6325 µM) was 0.21 and the relative viability ([4]; first compound 2 µM) was 0.187.
For PC-3 [JPC-3], the relative viability ([1]; first compound 0.01 µM) was 0.731, the relative viability ([1]; first compound 0.03162 µM) was 0.752 and the relative viability ([1]; first compound 0.1 µM) was 0.65. It also gave a relative viability ([1]; first compound 0.3162 µM) of 0.538, a relative viability ([1]; first compound 1 µM) of 0.361 and a relative viability ([2]; first compound 0.2 µM) of 0.846. The relative viability ([2]; first compound 0.6325 µM) was 0.73, the relative viability ([2]; first compound 2 µM) was 0.75 and the relative viability ([3]; first compound 0.005 µM) was 0.527. It also gave a relative viability ([3]; first compound 0.01581 µM) of 0.854, a relative viability ([3]; first compound 0.05 µM) of 0.826 and a relative viability ([3]; first compound 0.1581 µM) of 0.923. The relative viability ([3]; first compound 0.5 µM) was 0.81, the relative viability ([4]; first compound 0.02 µM) was 1.21 and the relative viability ([4]; first compound 0.06325 µM) was 0.937. It also gave a relative viability ([4]; first compound 0.2 µM) of 0.824, a relative viability ([4]; first compound 0.6325 µM) of 0.65 and a relative viability ([4]; first compound 2 µM) of 0.374.
Work on HCC-44 yielded a relative viability ([1]; first compound 0.01 µM) of 1.04, a relative viability ([1]; first compound 0.03162 µM) of 1.01 and a relative viability ([1]; first compound 0.1 µM) of 1.05. For the same cell line, the relative viability ([1]; first compound 0.3162 µM) was 0.981, the relative viability ([1]; first compound 1 µM) was 1.06 and the relative viability ([2]; first compound 0.2 µM) was 0.946. For the same cell line, the relative viability ([2]; first compound 0.6325 µM) was 0.955, the relative viability ([2]; first compound 2 µM) was 0.876 and the relative viability ([3]; first compound 0.005 µM) was 0.87. For the same cell line, the relative viability ([3]; first compound 0.01581 µM) was 0.878, the relative viability ([3]; first compound 0.05 µM) was 0.877 and the relative viability ([3]; first compound 0.1581 µM) was 0.961. The relative viability ([3]; first compound 0.5 µM) was 0.882, the relative viability ([4]; first compound 0.02 µM) was 0.606 and the relative viability ([4]; first compound 0.06325 µM) was 0.699. It also gave a relative viability ([4]; first compound 0.2 µM) of 0.684, a relative viability ([4]; first compound 0.6325 µM) of 0.657 and a relative viability ([4]; first compound 2 µM) of 0.635.
Work on H3255 yielded a relative viability ([1]; first compound 0.01 µM) of 1.01, a relative viability ([1]; first compound 0.03162 µM) of 0.721 and a relative viability ([1]; first compound 0.1 µM) of 0.546. It also gave a relative viability ([1]; first compound 0.3162 µM) of 0.556, a relative viability ([1]; first compound 1 µM) of 0.259 and a relative viability ([2]; first compound 0.2 µM) of 0.582. For the same cell line, the relative viability ([2]; first compound 0.6325 µM) was 0.547, the relative viability ([2]; first compound 2 µM) was 0.506 and the relative viability ([3]; first compound 0.005 µM) was 0.705. The relative viability ([3]; first compound 0.01581 µM) was 0.696, the relative viability ([3]; first compound 0.05 µM) was 0.694 and the relative viability ([3]; first compound 0.1581 µM) was 0.837. For the same cell line, the relative viability ([3]; first compound 0.5 µM) was 0.749, the relative viability ([4]; first compound 0.02 µM) was 0.566 and the relative viability ([4]; first compound 0.06325 µM) was 0.482. The relative viability ([4]; first compound 0.2 µM) was 0.49, the relative viability ([4]; first compound 0.6325 µM) was 0.444 and the relative viability ([4]; first compound 2 µM) was 0.357.
Cell Line LXF-289 has a relative viability ([1]; first compound 0.01 µM) of 1.08, a relative viability ([1]; first compound 0.03162 µM) of 1.13 and a relative viability ([1]; first compound 0.1 µM) of 1.02. For the same cell line, the relative viability ([1]; first compound 0.3162 µM) was 1.07, the relative viability ([1]; first compound 1 µM) was 0.811 and the relative viability ([2]; first compound 0.2 µM) was 0.433. It also gave a relative viability ([2]; first compound 0.6325 µM) of 0.384, a relative viability ([2]; first compound 2 µM) of 0.267 and a relative viability ([3]; first compound 0.005 µM) of 0.888. The relative viability ([3]; first compound 0.01581 µM) was 1.03, the relative viability ([3]; first compound 0.05 µM) was 1.02 and the relative viability ([3]; first compound 0.1581 µM) was 1.06. The relative viability ([3]; first compound 0.5 µM) was 0.717, the relative viability ([4]; first compound 0.02 µM) was 0.916 and the relative viability ([4]; first compound 0.06325 µM) was 0.949. It also gave a relative viability ([4]; first compound 0.2 µM) of 0.885, a relative viability ([4]; first compound 0.6325 µM) of 0.909 and a relative viability ([4]; first compound 2 µM) of 0.889.
